Test results reported in ChEMBL document CHEMBL4261654, “Synthesis and in vitro antitumor activity of novel alkenyl derivatives of pyridoxine, bioisosteric analogs of feruloyl methane” (Bioorg Med Chem, 2018).
The source made the active and inactive calls. The rule behind the calls is not given here.

Key:
[1] = system: MCF7; assay: Antiproliferative activity against human MCF7 cells after 72 hrs by MTT assay; format: functional, cell-based; conditions: MCF7, 72 h
[2] = system: HEK293; assay: Antiproliferative activity against human HEK293 cells after 72 hrs by MTT assay; format: cell-based; conditions: HEK293, 72 h
[3] = system: PC-3; assay: Antiproliferative activity in human PC3 cells at 10 uM measured after 120 hrs measured each 15 mins by RTCA DP based cellular impedance analysis; format: functional
[4] = system: PC-3; assay: Antiproliferative activity in human PC3 cells at 0.2 to 2 uM measured during 120 hrs each 15 mins by RTCA DP based cellular impedance analysis; format: functional, cell-based
[5] = Antiproliferative activity against HSF cells after 72 hrs by MTT assay; format: cell-based; conditions: Homo sapiens
[6] = system: PC-3; assay: Antiproliferative activity against human PC3 cells after 72 hrs by MTT assay; format: functional, cell-based; conditions: PC-3, 72 h
[7] = system: A498; assay: Antiproliferative activity against human A498 cells after 72 hrs by MTT assay; format: functional, cell-based; conditions: A498, 72 h
[8] = system: SNB-19; assay: Antiproliferative activity against human SNB19 cells after 72 hrs by MTT assay; format: functional, cell-based; conditions: SNB-19, 72 h
[9] = system: M14; assay: Antiproliferative activity against human M14 cells after 72 hrs by MTT assay; format: functional, cell-based; conditions: M14, 72 h
[10] = system: OVCAR-4; assay: Antiproliferative activity against human OVCAR4 cells after 72 hrs by MTT assay; format: functional, cell-based; conditions: OVCAR-4, 72 h
[11] = system: NCI-H322M; assay: Antiproliferative activity against human NCI-H322M cells after 72 hrs by MTT assay; format: functional, cell-based
[12] = system: HCT-15; assay: Antiproliferative activity against human HCT15 cells after 72 hrs by MTT assay; format: functional, cell-based; conditions: HCT-15, 72 h
[13] = system: HCT-116; assay: Antiproliferative activity against human HCT116 cells after 72 hrs by MTT assay; format: functional, cell-based; conditions: HCT-116, 72 h
[14] = system: MDA-MB-231; assay: Antiproliferative activity against human MDA-MB-231 cells after 72 hrs by MTT assay; format: functional, cell-based; conditions: MDA-MB-231, 72 h
[15] = Selectivity index, ratio of IC50 for HSF cells to IC50 for human MCF7 cells; format: toxicity; conditions: HSF cells versus MCF7 cells, read-out: Ratio IC50
[16] = Ratio of compound IC50 to dehydrozingerone IC50 for antiproliferative activity against HSF cells; format: cell-based; conditions: human, read-out: Ratio IC50
[17] = system: MCF7; assay: Potency index, ratio of compound IC50 to dehydrozingerone IC50 for antiproliferative activity against human MCF7 cells; format: functional
[18] = system: PC-3; assay: Potency index, ratio of compound IC50 to dehydrozingerone IC50 for antiproliferative activity against human PC3 cells; format: functional
[19] = system: A498; assay: Potency index, ratio of compound IC50 to dehydrozingerone IC50 for antiproliferative activity against human A498 cells; format: functional
[20] = system: SNB-19; assay: Potency index, ratio of compound IC50 to dehydrozingerone IC50 for antiproliferative activity against human SNB19 cells; format: functional
[21] = system: M14; assay: Potency index, ratio of compound IC50 to dehydrozingerone IC50 for antiproliferative activity against human M14 cells; format: functional
[22] = system: OVCAR-4; assay: Potency index, ratio of compound IC50 to dehydrozingerone IC50 for antiproliferative activity against human OVCAR4 cells; format: functional
[23] = system: NCI-H322M; assay: Potency index, ratio of compound IC50 to dehydrozingerone IC50 for antiproliferative activity against human NCI-H322M cells; format: functional
[24] = system: HCT-15; assay: Potency index, ratio of compound IC50 to dehydrozingerone IC50 for antiproliferative activity against human HCT15 cells; format: functional
[25] = system: HCT-116; assay: Potency index, ratio of compound IC50 to dehydrozingerone IC50 for antiproliferative activity against human HCT116 cells; format: functional
[26] = system: MDA-MB-231; assay: Potency index, ratio of compound IC50 to dehydrozingerone IC50 for antiproliferative activity against human MDA-MB-231 cells; format: functional
[27] = system: PC-3; assay: Antimigratory activity in human PC3 cells at 0.2 uM measured during 120 hrs each 15 mins by RTCA DP based cellular impedance analysis; format: functional
[28] = system: PC-3; assay: Antimigratory activity in human PC3 cells at 2 uM measured during 120 hrs each 15 mins by RTCA DP based cellular impedance analysis; format: functional
[29] = system: PC-3; assay: Antimigratory activity in human PC3 cells at 10 uM measured during 120 hrs each 15 mins by RTCA DP based cellular impedance analysis; format: functional
[30] = system: PC-3; assay: Cell cycle arrest in human PC3 cells assessed as accumulation at G0/G1 phase at 2 uM after 72 hrs by RNase/propidium iodide staining-based flow cytometric analysis (reference value: 61 +/- 3%); format: functional
[31] = system: PC-3; assay: Cell cycle arrest in human PC3 cells assessed as accumulation at S phase at 2 uM after 72 hrs by RNase/propidium iodide staining-based flow cytometric analysis (reference value: 17 +/- 1%); format: functional
[32] = system: PC-3; assay: Cell cycle arrest in human PC3 cells assessed as accumulation at G2/M phase at 2 uM after 72 hrs by RNase/propidium iodide staining-based flow cytometric analysis (reference value: 20 +/- 3%); format: functional
[33] = system: PC-3; assay: Cell cycle arrest in human PC3 cells assessed as accumulation at G0/G1 phase at 10 uM after 72 hrs by RNase/propidium iodide staining-based flow cytometric analysis (reference value: 61 +/- 3%); format: functional
[34] = system: PC-3; assay: Cell cycle arrest in human PC3 cells assessed as accumulation at S phase at 10 uM after 72 hrs by RNase/propidium iodide staining-based flow cytometric analysis (reference value: 17 +/- 1%); format: functional
[35] = system: PC-3; assay: Cell cycle arrest in human PC3 cells assessed as accumulation at G2/M phase at 10 uM after 72 hrs by RNase/propidium iodide staining-based flow cytometric analysis (reference value: 20 +/- 3%); format: functional
[36] = Antioxidant activity assessed as ferric ion reducing activity at 20 to 320 umol after 20 mins by FRAP assay; format: functional
[37] = system: PC-3; assay: Induction of apoptosis in human PC3 cells assessed as necrotic cells at 10 uM after 24 hrs by Annexin V-PE/7-AAD staining-based flow cytometric analysis (reference value: 14%); format: functional
[38] = system: PC-3; assay: Induction of apoptosis in human PC3 cells assessed as late apoptotic cells at 10 uM after 24 hrs by Annexin V-PE/7-AAD staining-based flow cytometric analysis (reference value: 8%); format: functional
[39] = system: PC-3; assay: Induction of apoptosis in human PC3 cells assessed as early apoptotic cells at 10 uM after 24 hrs by Annexin V-PE/7-AAD staining-based flow cytometric analysis (reference value: 2%); format: functional
[40] = system: PC-3; assay: Induction of apoptosis in human PC3 cells assessed as viable cells at 10 uM after 24 hrs by Annexin V-PE/7-AAD staining-based flow cytometric analysis (reference value: 70%); format: functional; conditions: PC-3, 24 h, read-out: Activity
[41] = system: PC-3; assay: Induction of apoptosis in human PC3 cells assessed as necrotic cells at 30 uM after 24 hrs by Annexin V-PE/7-AAD staining-based flow cytometric analysis (reference value: 14%); format: functional
[42] = system: PC-3; assay: Induction of apoptosis in human PC3 cells assessed as late apoptotic cells at 30 uM after 24 hrs by Annexin V-PE/7-AAD staining-based flow cytometric analysis (reference value: 8%); format: functional
[43] = system: PC-3; assay: Induction of apoptosis in human PC3 cells assessed as early apoptotic cells at 30 uM after 24 hrs by Annexin V-PE/7-AAD staining-based flow cytometric analysis (reference value: 2%); format: functional
[44] = system: PC-3; assay: Induction of apoptosis in human PC3 cells assessed as viable cells at 30 uM after 24 hrs by Annexin V-PE/7-AAD staining-based flow cytometric analysis (reference value: 70%); format: functional; conditions: PC-3, 24 h, read-out: Activity
[45] = system: PC-3; assay: Induction of mitochondrial membrane potential loss in human PC3 cells assessed as fluorescence intensity at 10 uM after 24 hrs by TMRE dye-based flow cytometric analysis (reference value: 10101 +/- 853); format: functional
[46] = system: PC-3; assay: Induction of mitochondrial membrane potential loss in human PC3 cells assessed as fluorescence intensity at 20 uM after 24 hrs by TMRE dye-based flow cytometric analysis (reference value: 10101 +/- 853); format: functional
[47] = system: PC-3; assay: Induction of mitochondrial membrane potential loss in human PC3 cells assessed as fluorescence intensity at 30 uM after 24 hrs by TMRE dye-based flow cytometric analysis (reference value: 10101 +/- 853); format: functional
[48] = system: PC-3; assay: Induction of apoptosis in human PC3 cells assessed as intracellular ROS levels by measuring fluoresence intensity at 10 uM after 24 hrs by DCFH-DA staining-based flow cytometric analysis (reference value: 3176 +/- 398); format: functional
[49] = system: PC-3; assay: Induction of apoptosis in human PC3 cells assessed as intracellular ROS levels by measuring fluoresence intensity at 20 uM after 24 hrs by DCFH-DA staining-based flow cytometric analysis (reference value: 3176 +/- 398); format: functional
[50] = system: PC-3; assay: Induction of apoptosis in human PC3 cells assessed as intracellular ROS levels by measuring fluoresence intensity at 30 uM after 24 hrs by DCFH-DA staining-based flow cytometric analysis (reference value: 3176 +/- 398); format: functional

CC(=O)/C=C/c1cnc(C)c2c1COC(C)(C)O2
IC50 [1]: 6.6 µM | IC50 [2]: 17 µM

CC(=O)/C=C/c1cnc(C)c(O)c1CO
IC50 [1]: 398 µM | IC50 [2]: 121 µM

CC(=O)/C=C/c1cnc(C)c2c1COC1(CCCCC1)O2
inhibition at 10 µM [3]: 25% | Activity [4]: inactive | IC50 [1]: 1.1 µM | IC50 [2]: 16 µM | IC50 [5]: 15.6 µM | IC50 [6]: 5.5 µM | IC50 [7]: 6.5 µM | IC50 [8]: 4.7 µM | IC50 [9]: 2600 nM | IC50 [10]: 19 µM | IC50 [11]: 4.6 µM | IC50 [12]: 1500 nM | IC50 [13]: 2800 nM | IC50 [14]: 1800 nM | selectivity ratio [15]: 14.2 | selectivity ratio [16]: 7 to 211 | Ratio IC50 [17]: 7 - 211 | Ratio IC50 [18]: 7 - 211 | Ratio IC50 [19]: 7 - 211 | Ratio IC50 [20]: 7 - 211 | Ratio IC50 [21]: 7 - 211 | Ratio IC50 [22]: 7 - 211 | Ratio IC50 [23]: 7 - 211 | Ratio IC50 [24]: 7 - 211 | Ratio IC50 [25]: 7 - 211 | Ratio IC50 [26]: 7 - 211 | inhibition at 0.2 µM [27]: 11% | inhibition at 2 µM [28]: 27% | inhibition at 10 µM [29]: 47% | Activity [30]: 61% | Activity [31]: 18% | Activity [32]: 19% | Activity [33]: 52% | Activity [34]: 17% | Activity [35]: 29% | Activity [36]: inactive | Activity [37]: 17% | Activity [38]: 16% | Activity [39]: 3% | viability at 10 µM [40]: 63% | Activity [41]: 6% | Activity [42]: 52% | Activity [43]: 3% | viability at 30 µM [44]: 39% | Flu intensity [45]: 9999 | Flu intensity [46]: 10524 | Flu intensity [47]: 7587 | Flu intensity [48]: 3680 | Flu intensity [49]: 4486 | Flu intensity [50]: 3085

CCCCC1OCc2c(/C=C/C(C)=O)cnc(C)c2O1 (stereo not drawn)
IC50 [1]: 1.3 µM | IC50 [2]: 13 µM

CC(=O)/C=C/c1cnc(C)c2c1COC(C(C)(C)C)O2 (stereo not drawn)
IC50 [1]: 4.1 µM | IC50 [2]: 1.2 µM

CC(=O)/C=C/c1cnc(C)c2c1COC1(CCCC1)O2
IC50 [1]: 7.2 µM | IC50 [2]: 17 µM

CCCC1OCc2c(/C=C/C(C)=O)cnc(C)c2O1 (stereo not drawn)
IC50 [1]: 2.2 µM | IC50 [2]: 2.9 µM

O=C1O[C@H]([C@@H](O)CO)C(O)=C1O
Activity [36]: Active
